Data published in patent US5866597A, “Use of triazine compounds for the treatment of memory and learning disorders” (Glaxo Wellcome Inc., priority 1993, dated 1999).

Columns and labels:
[1] = tested on: scopolamine-induced pupillary dilatation in rats; test: Pupil diameter measurement in rats (Table 6); format: in vivo, Male Wistar rats; details: for Mean pupil diameter: ± SEM
Experimental: (§1) 15 minutes before observation. Under these conditions, which were identical to those used in the learning experiments described in Example 2, changes in salivation and pupil diameter were measured. Salivation was measured by placing a piece of folded filter paper in the rat's mouth and measuring the diameter of the blot in mm after 1 minute. Pupil diameter was measured using a magnifying glass and graticule under normal lighting conditions. For both measures, comparisons were made between control and drug-treated groups using a Student's T-test on independent samples.
(§2) Groups of 6 animals were used.

[2] = tested on: scopolamine-induced deficit in mice; test: Modified light-dark box memory test in mice, scopolamine-induced deficit, drug given pre-training (Table 1); format: in vivo, Male albino CD-1 mice; details: for Mean latency Day 1 / Mean latency Day 2: ± SEM
Experimental: (§3) Male albino CD-1 mice obtained from Charles River were used. They were housed under controlled conditions (temperature 21±2 deg. C., humidity approx. 50%, 12 hour light/dark cycle, food and water ad lib) for one week before use. On the day before test, the mice were housed in groups of six in polythene boxes in the laboratory and marked for identification. Food and water were supplied ad lib. On the test day, animals were weighed and then dosed either 30 minutes before test (piracetam, ondansetron) one hour before test (compound A) or immediately after test.
All drugs were dissolved or suspended in 0.25% (w/v) aqueous celacol, and administered orally (by gavage), i.p. or s.c. The dose volume was 10 ml/kg for all routes.
(§4) The apparatus consisted of two boxes with an opening 90 mm×60 mm at floor level between them. A plastic door was used to close the opening when required. The smaller box (290 mm×120 mm×120 mm high) was made of opaque plastics, open at the top to allow illumination by normal laboratory lighting. The larger box (305 mm square×280 mm high) was enclosed apart from the single opening.
(§5) This consisted of training, with retest 24 hours later. During training, animals were placed individually in the open box facing away from the end with the opening. After a period of exploration, they usually entered the dark box and the latency to entry in seconds was noted. The door to the dark box was closed, and after 30 seconds had elapsed, the animal was removed gently and returned to the holding box. Twenty-four hours later, an identical procedure was used, except that the session ended as soon as the animal had entered the dark box. The latency was again noted. During the interval, the animals were not handled, and were disturbed as little as possible. Each animal was used once only.
(§6) Test drugs or control fluids were given before or immediately after the training session.
Group comparisons were made between latencies to enter the dark compartment on the first and second occasions. For both training and retest occasions, comparisons were made between vehicle and treatment groups. […] The difference between latencies on the two occasions is presented as % decrease on Day 2 compared with Day 1.
(§7) The mean latency to enter the dark box±standard error of the mean was calculated from a group of 12 animals. For a given treatment, figures in the columns labelled `Day 1` and `Day 2` show the mean latencies taken from the same group of animals. The difference between data obtained on the two days is illustrated by showing the % decrease, and the data compared using the Mann-Whitney U-test; NS indicates a p value>0.1.

[3] = tested on: voltage-sensitive sodium channels; details: Lang et al 1993; Lees and Leach 1993; cited from earlier work
[4] = tested on: scopolamine-induced deficit in rats; test: Light-dark box memory test in rats, scopolamine-induced deficit, single dose pre-training (Tables 3 and 4); format: in vivo, Male Wistar rats; details: for Mean latency Day 1 / Mean latency Day 2: ± SEM
Experimental: Male Wistar rats obtained from Charles River were used. They were housed under controlled conditions (temperature 21±2 deg. C., humidity approx. 50%, 12 hour light/dark cycle, food and water ad lib) for one week before use. On the day before test the rats were permanently housed in groups of six. Food and water were supplied ad lib. On the test day, animals were weighed and then dosed either 30 minutes before test (midazolam), one hour before test (compound A) or immediately after test.
All drugs were dissolved or suspended in 0.25% (w/v) aqueous celacol, and administered orally (by gavage), i.p. or s.c. The dose volume was 5 ml/kg for all routes.
An identical apparatus to that described in Example 1 was used, except that the smaller box measured 370 mm×260 mm×190 mm.
This consisted of training as described for mice under section (d) of Example 1.
as §6
This was as described under section (e) of Example 1.

[5] = tested on: scopolamine-induced deficit in mice; test: Modified light-dark box memory test in mice, scopolamine-induced deficit, drug given immediately post-training (Table 2); format: in vivo, Male albino CD-1 mice; details: for Mean latency Day 1 / Mean latency Day 2: ± SEM
Experimental: as §3
[…] The dose volume was 10 ml/kg for all routes.
as §4, §5, §6
Group comparisons were made between latencies to enter the dark compartment on the first and second occasions. For both training and retest occasions, comparisons were made between vehicle and treatment groups. The distribution of latencies was skewed on both learning and retest trials (data not shown), so the non-parametric Mann-Whitney U-test was used. The difference between latencies on the two occasions is presented as % decrease on Day 2 compared with Day 1.
as §7

[6] = tested on: scopolamine-induced dry mouth in rats; test: Salivation measurement in rats (Table 6); format: in vivo, Male Wistar rats; details: for Mean salivation (blot diameter): ± SEM
Experimental: as §1, §2

[7] = tested on: release of excitatory amino acids, principally glutamate; details: at anticonvulsant brain concentrations; cited from earlier work
[8] = compound A 10 mg/kg p.o. + saline s.c.
[9] = compound A 40 mg/kg p.o. + saline s.c.
[10] = compound A 40 mg/kg p.o. + scopolamine 0.1 mg/kg s.c.
[11] = compound A pretreatment, p>0.05 vs vehicle
[12] = saline s.c. + compound A 40 mg/kg p.o., 1 h pre-training
[13] = scopolamine 1 mg/kg s.c. + compound A 10 mg/kg p.o.
[14] = scopolamine 1 mg/kg s.c. + compound A 20 mg/kg p.o.
[15] = scopolamine 1 mg/kg s.c. + compound A 40 mg/kg p.o.
[16] = saline s.c. + compound A 40 mg/kg p.o.
[17] = scopolamine 0.1 mg/kg s.c. + compound A 10 mg/kg p.o.
[18] = scopolamine 0.1 mg/kg s.c. + compound A 20 mg/kg p.o.
[19] = scopolamine 0.1 mg/kg s.c. + compound A 40 mg/kg p.o.
[20] = saline s.c. + compound A 20 mg/kg i.v. post-training
[21] = saline s.c. + compound A 40 mg/kg p.o. post-training
[22] = scopolamine 1 mg/kg s.c. + compound A 20 mg/kg i.v. post-training
[23] = scopolamine 1 mg/kg s.c. + compound A 40 mg/kg p.o. post-training

## Nc1nnc(-c2cccc(Cl)c2Cl)c(N)n1 [Compound A, 3,5-Diamino-6-(2,3-dichlorophenyl)-1,2,4-triazine]
[1]; [8]
  Mean pupil diameter: 7.00 ± 0.58 mm × 10
[1]; [9]
  Mean pupil diameter: 7.75 ± 0.85 mm × 10
[1]; [10]
  Mean pupil diameter: 23.0 ± 1.78 mm × 10
[1]; [11]
  Influence on scopolamine-induced change in pupil diameter: no influence on the scopolamine-induced changes
[2]; saline s.c. + compound A 40 mg/kg p.o., 1 h pre-training, p <0.01
  Difference between days, % Decrease: 45%
[2]; [12]
  Mean latency Day 1: 23.3 ± 3.4 s
  Mean latency Day 2: 12.8 ± 1.2 s
[2]; scopolamine 1 mg/kg s.c. + compound A 10 mg/kg p.o., p NS
  Difference between days, % Decrease: 13%
[2]; [13]
  Mean latency Day 1: 19.6 ± 1.7 s
  Mean latency Day 2: 17.1 ± 2.2 s
[2]; scopolamine 1 mg/kg s.c. + compound A 20 mg/kg p.o., p <0.05
  Difference between days, % Decrease: 28%
[2]; [14]
  Mean latency Day 1: 18.6 ± 2.4 s
  Mean latency Day 2: 13.3 ± 1.5 s
[2]; scopolamine 1 mg/kg s.c. + compound A 40 mg/kg p.o., p <0.001
  Difference between days, % Decrease: 56%
[2]; [15]
  Mean latency Day 1: 22.1 ± 3.2 s
  Mean latency Day 2: 9.7 ± 1.2 s
[3]
  Block of voltage-sensitive sodium channels: use-dependent block of voltage-sensitive sodium channels
[4]; saline s.c. + compound A 40 mg/kg p.o., p <0.001
  Difference between days, % Decrease: 50%
[4]; [16]
  Mean latency Day 1: 38.3 ± 3.8 s
  Mean latency Day 2: 19.3 ± 3.0 s
[4]; scopolamine 0.1 mg/kg s.c. + compound A 10 mg/kg p.o., p NS
  Difference between days, % Decrease: 0%
[4]; [17]
  Mean latency Day 1: 40.8 ± 4.8 s
  Mean latency Day 2: 40.8 ± 4.6 s
[4]; scopolamine 0.1 mg/kg s.c. + compound A 20 mg/kg p.o., p NS*
  Difference between days, % Decrease: 16%
[4]; [18]
  Mean latency Day 1: 37.7 ± 4.4 s
  Mean latency Day 2: 31.7 ± 3.9 s
[4]; scopolamine 0.1 mg/kg s.c. + compound A 40 mg/kg p.o., p <0.01
  Difference between days, % Decrease: 45%
[4]; [19]
  Mean latency Day 1: 38.4 ± 4.1 s
  Mean latency Day 2: 21.1 ± 3.6 s
[5]; compound A 20 mg/kg i.v. post-training
  Reversal of scopolamine-induced deficit: no reversal of the scopolamine-induced deficit
[5]; compound A 40 mg/kg p.o. post-training
  Reversal of scopolamine-induced deficit: no reversal of the scopolamine-induced deficit
[5]; saline s.c. + compound A 20 mg/kg i.v. post-training, p (0.09)
  Difference between days, % Decrease: 26%
[5]; [20]
  Mean latency Day 1: 19.9 ± 2.7 s
  Mean latency Day 2: 14.8 ± 2.1 s
[5]; saline s.c. + compound A 40 mg/kg p.o. post-training, p <0.05
  Difference between days, % Decrease: 30%
[5]; [21]
  Mean latency Day 1: 20.0 ± 2.3 s
  Mean latency Day 2: 13.9 ± 1.5 s
[5]; scopolamine 1 mg/kg s.c. + compound A 20 mg/kg i.v. post-training, p NS
  Difference between days, % Decrease: -1%
[5]; [22]
  Mean latency Day 1: 20.0 ± 2.3 s
  Mean latency Day 2: 20.3 ± 2.5 s
[5]; scopolamine 1 mg/kg s.c. + compound A 40 mg/kg p.o. post-training, p NS
  Difference between days, % Decrease: -23%
[5]; [23]
  Mean latency Day 1: 18.5 ± 1.8 s
  Mean latency Day 2: 22.7 ± 2.6 s
[6]; [8]
  Mean salivation (blot diameter): 8.75 ± 1.11 mm
[6]; [9]
  Mean salivation (blot diameter): 8.25 ± 0.63 mm
[6]; [10]
  Mean salivation (blot diameter): 2.13 ± 0.63 mm
[6]; [11]
  Influence on scopolamine-induced change in salivation: no influence on the scopolamine-induced changes
[7]
  Inhibition of release of excitatory amino acids, principally glutamate: inhibit the release of excitatory amino acids, principally glutamate
